Results published in US20230310388A1, “Methods and Compositions for Treating Fungal Infections” (Neoculi Pty Ltd, priority 2020, published 2023).
Values after ≈ are worked out from the molar mass of the structure shown.

Assays:
C. gattii = assay: CLSI broth microdilution MIC (Example 6); assay type: cell-based, Cryptococcus gattii
Protocol: (§1) Antifungal minimum inhibitory concentration (MIC) testing was undertaken as recommended by the CLSI (1). Briefly, antifungal susceptibility tests were performed for amphotericin B, robenidine (NCL812) and 10 robenidine analogs (NCL023, NCL024, NCL097, NCL113, NCL115, NCL195, NCL219, NCL220, NCL259, NCL265) by standard broth microdilution method (CLSI) in RPMI 1640. Various concentrations (ranging from high to low) of the selected compounds were prepared in RPMI 1640 medium by double dilution in 96-well microtitre plates. Each well contained an inoculum of approximately 2×10^3 cells/mL. The wells without addition of drugs served as negative (no inoculum) and positive (inoculum only) growth controls. Microtitre plates were incubated at 35° C. for 24-48 hours. […] Antifungal MICs were determined for each isolate in duplicate; if the values obtained were different, the MIC test was repeated a third time.

Candida albicans [1] = assay: CLSI broth microdilution MIC (Example 6); assay type: cell-based
Protocol: as §1

Cryptococcus neoformans [2] = assay: CLSI broth microdilution MIC (Example 6); assay type: cell-based
Protocol: as §1

[3] = system: Candida albicans ATCC14053; assay: Broth micro-dilution screen at 16 μg/mL and MIC (Example 9); assay type: cell-based; conditions: for MIC: C. albicans ATCC14053, test range 0.25-64 μg/mL, duplicate; for Screen at 16 μg/mL: single concentration 16 μg/mL, Growth or No growth of C. albicans ATCC14053
Protocol: The antifungal activity of 201 NCL analogs against Candida albicans ATCC14053 in vitro was investigated. A broth micro-dilution method was used, according to CLSI guidelines as described. NCL analogs were dissolved in DMSO and originally screened at a single concentration of 16 μg/mL.

Candida albicans [4] = assay: CLSI broth microdilution MIC (Example 5); assay type: cell-based; conditions: for activity against one or more isolates of Cryptococcus neoformans and Candida albicans: summary in words
Protocol: as §1, with “CLSI.” for “CLSI (1).”, “and” for “and 10”, “(NCL23, NCL24, NCL97,” for “(NCL023, NCL024, NCL097,”

Cryptococcus neoformans [5] = assay: CLSI broth microdilution MIC (Example 5); assay type: cell-based
Protocol: as §1, with “CLSI.” for “CLSI (1).”, “and” for “and 10”, “(NCL23, NCL24, NCL97,” for “(NCL023, NCL024, NCL097,”

Candida albicans [6] = assay: CLSI broth microdilution MIC (Example 3); assay type: cell-based
Protocol: as §1, with “the CLSI.” for “the CLSI (1).”, “and 5” for “and 10”, “analogs (NCL062,” for “analogs (NCL023, NCL024, NCL097, NCL113, NCL115,”, “NCL219,” for “NCL219, NCL220,”, “time. Antifungal susceptibility tests were performed for amphotericin B and NCL analogs by standard broth microdilution method (CLSI). Briefly, various concentrations (ranging from high to low) of the selected compounds were prepared in RPMI 1640 medium by double dilution in the 96-well plates. Each well contained an inoculum of approximately 2×10^3 cells/mL. The wells without addition of drugs served as a negative control. Micro plates were incubated at 35° C. for 48 hour and read spectrophotometrically at 600 nm, using a microplate reader (Multiskan-EX; Thermo Elect. Corp., USA).” for “time.”

Candida parapsilosis = assay: CLSI broth microdilution MIC (Example 3); assay type: cell-based; conditions: Candida parapsilosis ATCC 22019
Protocol: as §1, with “the CLSI.” for “the CLSI (1).”, “and 5” for “and 10”, “analogs (NCL062,” for “analogs (NCL023, NCL024, NCL097, NCL113, NCL115,”, “NCL219,” for “NCL219, NCL220,”, “time. Antifungal susceptibility tests were performed for amphotericin B and NCL analogs by standard broth microdilution method (CLSI). Briefly, various concentrations (ranging from high to low) of the selected compounds were prepared in RPMI 1640 medium by double dilution in the 96-well plates. Each well contained an inoculum of approximately 2×10^3 cells/mL. The wells without addition of drugs served as a negative control. Micro plates were incubated at 35° C. for 48 hour and read spectrophotometrically at 600 nm, using a microplate reader (Multiskan-EX; Thermo Elect. Corp., USA).” for “time.”

Candida albicans [7] = assay: CLSI broth microdilution MIC (Example 4); assay type: cell-based; conditions: for antifungal activity against the two isolates of Candida albicans: summary in words
Protocol: (§2) Antifungal minimum inhibitory concentration (MIC) testing was undertaken as recommended by the CLSI. Briefly, antifungal susceptibility tests were performed for amphotericin B, robenidine (NCL812) and robenidine (NCL) analogs (NCL004, NCL020, NCL023, NCL024, NCL062, NCL094, NCL097, NCL110, NCL113, NCL114, NCL115, NCL135, NCL139, NCL180, NCL181, NCL195, NCL219, NCL220, NCL228, NCL247, NCL250, NCL259, NCL260, NCL263, NCL265, NCL269, NCL274) by standard broth microdilution method (CLSI) in RPMI 1640. Various concentrations (ranging from high to low) of the selected compounds were prepared in RPMI 1640 medium by double dilution in 96-well microtitre plates. Each well contained an inoculum of approximately 2×10^3 cells/mL. The wells without addition of drugs served as negative (no inoculum) and positive (inoculum only) growth controls. Microtitre plates were incubated at 35° C. for 24-48 hours. […] Antifungal MICs were determined for each isolate in duplicate; if the values obtained were different, the MIC test was repeated a third time.

Cryptococcus neoformans [8] = assay: CLSI broth microdilution MIC (Example 4); assay type: cell-based
Protocol: as §2

[9] = human clinical isolate C. gatti 17-90232099
[10] = human clinical isolate C. gattii 16-90050373
[11] = human clinical isolate C. gattii 17-90028211
[12] = human clinical isolate C. gattii 17-90028217
[13] = human clinical isolate C. gattii 17-90028242
[14] = human clinical isolate C. neoformans serotype A/D hybrid
[15] = human clinical isolate C. neoformans var grubii 16-90050434
[16] = human clinical isolate C. neoformans var grubii 17-90028233
[17] = human clinical isolate C. neoformans var grubii 17-93996464
[18] = human clinical isolate C. neoformans var grubii 17-93996964
[19] = clinical isolate C. albicans 12-93301752 Azole Resistant
[20] = clinical isolate C. albicans 14-90045999 Azole Resistant
[21] = clinical isolate C. albicans 15-45171061
[22] = clinical isolate C. albicans 15-91329871
[23] = clinical isolate C. albicans 16-24136919 Azole Resistant
[24] = clinical isolate C. albicans 16-46177400
[25] = clinical isolate C. albicans 16-90050810
[26] = clinical isolate C. albicans 16-90054237
[27] = clinical isolate C. albicans 18-144-00196
[28] = clinical isolate C. albicans 18-148-08188 Azole Resistant

C/C(=N\NC(=N)N/N=C(\C)c1ccc(C(C)(C)C)cc1)c1ccc(C(C)(C)C)cc1.Cl [NCL219]
MIC (C. gattii; [9]): >32 µg/mL | MIC (C. gattii; [10]): >32 µg/mL | MIC (C. gattii; [11]): >32 µg/mL | MIC (C. gattii; [12]): >32 µg/mL | MIC (C. gattii; [13]): >32 µg/mL | MIC (Candida albicans [1]; C. albicans SA3): 16 µg/mL | MIC (Candida albicans [1]; Candida albicans ATCC 90028): 32 µg/mL | MIC (Cryptococcus neoformans [2]; Cryptococcus neoformans SA1): 2 µg/mL | MIC (Cryptococcus neoformans [2]; Cryptococcus neoformans SA2): 2 µg/mL | MIC (Cryptococcus neoformans [2]; [14]): >32 µg/mL | MIC (Cryptococcus neoformans [2]; [15]): >32 µg/mL | MIC (Cryptococcus neoformans [2]; [16]): >32 µg/mL | MIC (Cryptococcus neoformans [2]; [17]): >32 µg/mL | MIC (Cryptococcus neoformans [2]; [18]): >32 µg/mL | MIC [3]: >64 µg/mL | Screen at 16 μg/mL [3]: Growth | MIC (Candida albicans [4]; C. albicans SA3): 16 µg/mL | MIC (Candida albicans [4]; Candida albicans ATCC 90028): 32 µg/mL | MIC (Candida albicans [4]; [19]): >16 µg/mL | MIC (Candida albicans [4]; [20]): 4 µg/mL | MIC (Candida albicans [4]; [21]): 8 µg/mL | MIC (Candida albicans [4]; [22]): >16 µg/mL | MIC (Candida albicans [4]; [23]): >16 µg/mL | MIC (Candida albicans [4]; [24]): >16 µg/mL | MIC (Candida albicans [4]; [25]): >16 µg/mL | MIC (Candida albicans [4]; [26]): >16 µg/mL | MIC (Candida albicans [4]; [27]): >16 µg/mL | MIC (Candida albicans [4]; [28]): >16 µg/mL | activity against one or more isolates of Cryptococcus neoformans and Candida albicans (Candida albicans [4]): highly active | MIC (Cryptococcus neoformans [5]; Cryptococcus neoformans SA1): 2 µg/mL | MIC (Cryptococcus neoformans [5]; Cryptococcus neoformans SA2): 2 µg/mL | MIC (Candida albicans [6]; Candida albicans ATCC 90028, 1st): >32 µg/mL | MIC (Candida albicans [6]; Candida albicans ATCC 90028, 2nd): >32 µg/mL | MIC (Candida albicans [6]; Candida albicans, 1st): >32 µg/mL | MIC (Candida albicans [6]; Candida albicans, 2nd): >32 µg/mL | MIC (Candida parapsilosis; 1st): >32 µg/mL | MIC (Candida parapsilosis; 2nd): >32 µg/mL | MIC at 24-48 hours (Candida albicans [7]; Candida albicans ATCC 90028): 32 µg/mL | MIC at 24-48 hours (Candida albicans [7]; Candida albicans SA3): 16 µg/mL | antifungal activity against the two isolates of Candida albicans (Candida albicans [7]): high antifungal activity | MIC at 24-48 hours (Cryptococcus neoformans [8]; Cryptococcus neoformans SA1): 2 µg/mL | MIC at 24-48 hours (Cryptococcus neoformans [8]; Cryptococcus neoformans SA2): 2 µg/mL

Nc1nc(NN=Cc2ccc(F)cc2)cc(NN=Cc2ccc(F)cc2)n1 [NCL220]
MIC (C. gattii; [9]): 4 µg/mL (≈ 10.9 µM) | MIC (C. gattii; [10]): >32 µg/mL | MIC (C. gattii; [11]): 32 µg/mL (≈ 87.1 µM) | MIC (C. gattii; [12]): 4 µg/mL (≈ 10.9 µM) | MIC (C. gattii; [13]): 32 µg/mL (≈ 87.1 µM) | MIC (Candida albicans [1]; C. albicans SA3): 32 µg/mL (≈ 87.1 µM) | MIC (Candida albicans [1]; Candida albicans ATCC 90028): 32 µg/mL (≈ 87.1 µM) | MIC (Cryptococcus neoformans [2]; Cryptococcus neoformans SA1): 2 µg/mL (≈ 5.44 µM) | MIC (Cryptococcus neoformans [2]; Cryptococcus neoformans SA2): 4 µg/mL (≈ 10.9 µM) | MIC (Cryptococcus neoformans [2]; [14]): 32 µg/mL (≈ 87.1 µM) | MIC (Cryptococcus neoformans [2]; [15]): 32 µg/mL (≈ 87.1 µM) | MIC (Cryptococcus neoformans [2]; [16]): >32 µg/mL | MIC (Cryptococcus neoformans [2]; [17]): 32 µg/mL (≈ 87.1 µM) | MIC (Cryptococcus neoformans [2]; [18]): 32 µg/mL (≈ 87.1 µM) | MIC [3]: >64 µg/mL | Screen at 16 μg/mL [3]: Growth | MIC (Candida albicans [4]; C. albicans SA3): 32 µg/mL (≈ 87.1 µM) | MIC (Candida albicans [4]; Candida albicans ATCC 90028): 32 µg/mL (≈ 87.1 µM) | MIC (Candida albicans [4]; [19]): 4 µg/mL (≈ 10.9 µM) | MIC (Candida albicans [4]; [20]): >16 µg/mL | MIC (Candida albicans [4]; [21]): >16 µg/mL | MIC (Candida albicans [4]; [22]): 8 µg/mL (≈ 21.8 µM) | MIC (Candida albicans [4]; [23]): 4 µg/mL (≈ 10.9 µM) | MIC (Candida albicans [4]; [24]): >16 µg/mL | MIC (Candida albicans [4]; [25]): >16 µg/mL | MIC (Candida albicans [4]; [26]): 8 µg/mL (≈ 21.8 µM) | MIC (Candida albicans [4]; [27]): 8 µg/mL (≈ 21.8 µM) | MIC (Candida albicans [4]; [28]): 4 µg/mL (≈ 10.9 µM) | activity against one or more isolates of Cryptococcus neoformans and Candida albicans (Candida albicans [4]): highly active | MIC (Cryptococcus neoformans [5]; Cryptococcus neoformans SA1): 2 µg/mL (≈ 5.44 µM) | MIC (Cryptococcus neoformans [5]; Cryptococcus neoformans SA2): 4 µg/mL (≈ 10.9 µM) | MIC at 24-48 hours (Candida albicans [7]; Candida albicans ATCC 90028): 32 µg/mL (≈ 87.1 µM) | MIC at 24-48 hours (Candida albicans [7]; Candida albicans SA3): 32 µg/mL (≈ 87.1 µM) | antifungal activity against the two isolates of Candida albicans (Candida albicans [7]): high antifungal activity | MIC at 24-48 hours (Cryptococcus neoformans [8]; Cryptococcus neoformans SA1): 2 µg/mL (≈ 5.44 µM) | MIC at 24-48 hours (Cryptococcus neoformans [8]; Cryptococcus neoformans SA2): 4 µg/mL (≈ 10.9 µM)
